Assay results published in patent publication US20100003228A1, “T-CELL VACCINE” (priority 2006, published 2010).
Where no end group is shown, it is not given here.

How the values were obtained:
[1] = test system: myelin reactive T cells in PBMCs; assay: EAA with positivity by Variance Evaluation Method or CPM Variance Method (clinical trials); type: cell-based, human; settings: clinical trial population, RR-MS or CIS subjects
Description: The predetermined value may also be calculated using a Variance Evaluation Method as follows: • 1. EAAs may be run on a given patient population (minimum of 120 assays from 120 unique subjects) • 2. A “negative population” may be created by averaging all SI values<2.5 • 3. The Standard Deviation (SD) may be calculated for each peptide • 4. The following for each peptide may be then be calculated: • a. Average+1SD • b. Average+2SD • c. Average+3SD • 5. The following SIs may be considered above the predetermined value: • a. SI greater than or equal to the average+3SD • b. Any SI greater than or equal to 2.5
The predetermined value may also be evaluated using a Counts per Minute (CPM) Variance Method. This algorithm may set a comprehensive cutoff for all peptides within a given assay. It may be calculated as follows: • 1. EAAs may be run and the CPM for all control (media only, no antigen) wells averaged. • 2. The SD for CPM of the control wells may then be calculated. • 3. The following may then be calculated for the control wells: • a. Average+1SD • b. Average+2SD • c. Average+3SD • 4. Any peptide with an average CPM greater than or equal to the average+3SD of the control wells may be considered above the predetermined value.
Any peptide, either analyzed in an individual well or as averaged over wells run in triplicate, with an SI≧2.5, an SI≧average+3SD by the Variance Evaluation Method, or an SI≧average+3SD by the CPM variance method may be considered above the predetermined value, which may indicate a T cell(s) positive for reactivity to a peptide.
The peptides of Example 3 have been tested in 429 EAAs in clinical trials as follows. […] Pre-Vaccine EAAs have 158 positive out of 387 assays (40.8%), with Relapse Remitting MS patients (RRMS) showing 150 positive of 368 assays (40.8%), and Clinically Isolated Syndrome (CIS) patients showing 8 positive of 19 assays (42.1%).
Over the course of 6 months a study was conducted with 120 subjects meeting the criteria for the clinical trial.
The above mentioned population of subjects was evaluated by EAA using the Variance Evaluation Method and CPM Variance Method as described above, and deemed eligible for vaccine production. Of the 120 attempts to manufacture vaccine, there were 2 shipping failures (blood was not received within our stated criteria), 1 culture was lost to contamination and 5 samples arrived with low cell volume/yield. Of the remaining 112 subjects, vaccine was successfully generated in 89 subjects, with 22 still in production (98.9% of eligible samples, 92.5% of all samples completed). From this, a positive EAA was deemed predictive of the ability to manufacture a vaccine to therapeutic dose by methods disclosed herein.

[2] = test system: myelin-reactive T cells; assay: Growth of myelin reactive T cell lines with low stimulation indices; type: cell-based, human
Description: Using the algorithms described above, statistically significant SIs as low as 1.3 have been observed and therefore should be able grow in response to antigen. To verify this ability, 5 cell lines across two patients are shown with an SI<2.0. The results are shown in Table 12 and FIG. 24, which indicate growth of these cell lines with only peptide antigen stimulation and common T cell growth factors.
PBMC for subject 1042 were run in the EAA, and […] were positive, including PLPm18 with an SI of 1.8, PLPm26 with an SI of 2.5 and PLPm28 with an SI of 2.5. […] PBMC for subject 1014 were run in the EAA, and 4 mixes were positive, including MBPm14 with an SI of 1.7, PLPm17 with an SI of 1.7, PLPm28 with an SI of 2.2 and MOGm6 with an SI of 1.9. […]
PBMCs were isolated via density gradient centrifugation from peripheral blood obtained through venipuncture into ACD-1 anticoagulant. PBMCs were plated at 2.5E+06 cells/well in 24 well plates. Antigen in the form of 16mer peptides identified in the EAA were added at a final concentration of 20 ug/ml. Interluekin-2 (IL-2) was added at a final concentration of 100 U/ml starting at 48 hours and IL-2 was added at the same concentration with each feeding or splitting of wells. Peptide restimulation in the presence of antigen presenting cells (APCs-autologous PBMCs irradiated at 3500 rad) was done at days 7, 14 and 21. Interleukin-15 (IL-15) was added at a final concentration of 5 ng/ml-20 ng/ml (lot specific) starting at day 14 and continued through the remainder of the culture period. Cells lines were all harvested by day 35 and had achieved expansions of 3.0-8.2 fold.

Substance	# of Subjects (frequency of identification) [1]	% of Subjects (frequency of identification) [1] [%]	also measured
FAVLKLMGRGTKF [PLP67]	5	4.2	
MOGm2: mix of MOG 3 and MOG 4 (chain 1 RHPIRALVGDEVELPC; chain 2 RALVGDEVELPCRISP)	6	5.0	
MOGm3: mix of MOG 5 and MOG 6 (chain 1 GDEVELPCRISPGKNA; chain 2 ELPCRISPGKNATGME)	4	3.4	
MOGm4: mix of MOG 7 and MOG 8 (chain 1 RISPGKNATGMEVGWY; chain 2 GKNATXMEVGWYRPPF; X not resolved here; also: mixture of MOG 7 and MOG 8)	3	2.5	
MOGm5: mix of MOG 9 and MOG 10 (chain 1 TGMEVGWYRPPFSRVV; chain 2 VGWYRPPFSRVVHLYR)	8	6.7	
MOGm6: mix of MOG 11 and MOG 12 (chain 1 RPPFSRVVHLYRNGKD; chain 2 SRVVHLYRNGKDQDGD)	4	3.4	Fold Expansion ([2]; subject 1014, Day 0): 1.3; Viable Cell Count, Count/well ([2]; subject 1014, Day 0): 2.50E+06; Viable Cell Count, Total Cells ([2]; subject 1014, Day 0): 3.00E+07; Fold Expansion ([2]; subject 1014, Day 17): 0.7; Viable Cell Count, Count/well ([2]; subject 1014, Day 17): 2.18E+06; Viable Cell Count, Total Cells ([2]; subject 1014, Day 17): 1.96E+07; Fold Expansion ([2]; subject 1014, Day 19): 1.3; Viable Cell Count, Count/well ([2]; subject 1014, Day 19): 4.27E+06; Viable Cell Count, Total Cells ([2]; subject 1014, Day 19): 3.84E+07; Fold Expansion ([2]; subject 1014, Day 28): 4.1; Viable Cell Count, Count/well ([2]; subject 1014, Day 28): 4.35E+06; Viable Cell Count, Total Cells ([2]; subject 1014, Day 28): 1.22E+08; Fold Expansion ([2]; subject 1014, Day 33): 4.4; Viable Cell Count, Count/well ([2]; subject 1014, Day 33): 4.71E+06; Viable Cell Count, Total Cells ([2]; subject 1014, Day 33): 1.32E+08; Fold Expansion ([2]; subject 1014, Day 35): 3.7; Viable Cell Count, Count/well ([2]; subject 1014, Day 35): 3.93E+06; Viable Cell Count, Total Cells ([2]; subject 1014, Day 35): 1.10E+08
MOGm7: mix of MOG 13 and MOG 14 (chain 1 HLYRNGKDQDGDQAPE; chain 2 NGKDQDGDQAPEYRGR)	5	4.2	
MOGm19: mix of MOG 37 and MOG 38 (chain 1 VFLCLQYRLRGKLRAE; chain 2 LQYRLRGKLRAEIENL)	6	5.0	
MOGm20: mix of MOG 39 and MOG 40 (chain 1 LRGKLRAEIENLHRTF; chain 2 LRAEIENLHRTFDPHF)	1	0.8	
MOGm21: mix of MOG 41 and MOG 42 (chain 1 IENLHRTFDPHFLRVP; chain 2 HRTFDPHFLRVPCWKI)	40	33.6	
MOGm22: mix of MOG 43 and MOG 44 (chain 1 DPHFLRVPCWKITLFV; chain 2 LRVPCWKITLFVIVPV)	2	1.7	
MOGm23: mix of MOG 45 and MOG 46 (chain 1 CWKITLFVIVPVLGPL; chain 2 TLFVIVPVLGPLVALI)	20	16.8	
MOGm24: mix of MOG 47 and MOG 48 (chain 1 IVPVLGPLVALIICYN; chain 2 LGPLVALIICYNWLHR)	15	12.6	
MOGm26: mix of MOG 51 and MOG 52 (chain 1 WLHRRLAGQFLEELRN; chain 2 RLAGQFLEELRNPF)	9	7.6	
PLPm4: mix of PLP 7 and PLP 8 (chain 1 CFFGVALFCGCGHEAL; chain 2 VALFCGCGHEALTGTE)	26	21.8	
PLPm6: mix of PLP 11 and PLP 12 (chain 1 TGTEKLIETYFSKNYQ; chain 2 KLIETYFSKNYQDYEY)	4	3.4	
PLPm11: mix of PLP 21 and PLP 22 (chain 1 LYGALLLAEGFYTTGA; chain 2 LLLAEGFYTTGAVRQI)	4	3.4	
PLPm12: mix of PLP 23 and PLP 24 (chain 1 EGFYTTGAVRQIFGDY; chain 2 TTGAVRQIFGDYKTTI)	1	0.8	
PLPm13: mix of PLP 25 and PLP 26 (chain 1 VRQIFGDYKTTICGKG; chain 2 FGDYKTTICGKGLSAT)	3	2.5	
PLPm17: mix of PLP 33 and PLP 34 (chain 1 QHQAHSLERVCHCLGK; chain 2 HSLERVCHCLGKWLGH)	14	11.8	Fold Expansion ([2]; subject 1014, Day 0): 1.0; Viable Cell Count, Count/well ([2]; subject 1014, Day 0): 2.50E+06; Viable Cell Count, Total Cells ([2]; subject 1014, Day 0): 2.25E+07; Fold Expansion ([2]; subject 1014, Day 17): 0.7; Viable Cell Count, Count/well ([2]; subject 1014, Day 17): 2.34E+06; Viable Cell Count, Total Cells ([2]; subject 1014, Day 17): 2.11E+07; Fold Expansion ([2]; subject 1014, Day 19): 1.2; Viable Cell Count, Count/well ([2]; subject 1014, Day 19): 3.85E+06; Viable Cell Count, Total Cells ([2]; subject 1014, Day 19): 3.47E+07; Fold Expansion ([2]; subject 1014, Day 28): 3.5; Viable Cell Count, Count/well ([2]; subject 1014, Day 28): 4.77E+06; Viable Cell Count, Total Cells ([2]; subject 1014, Day 28): 1.05E+08; Fold Expansion ([2]; subject 1014, Day 33): 2.9; Viable Cell Count, Count/well ([2]; subject 1014, Day 33): 3.89E+06; Viable Cell Count, Total Cells ([2]; subject 1014, Day 33): 8.56E+07; Fold Expansion ([2]; subject 1014, Day 35): 4.7; Viable Cell Count, Count/well ([2]; subject 1014, Day 35): 4.73E+06; Viable Cell Count, Total Cells ([2]; subject 1014, Day 35): 1.42E+08
PLPm19: mix of PLP 37 and PLP 38 (chain 1 WLGHPDKFVGITYALT; chain 2 PDKFVGITYALTVVWL)	11	9.2	
PLPm22: mix of PLP 43 and PLP 44 (chain 1 CSAVPVYIYFNTWTTC; chain 2 PVYIYFNTWTTCQSIA)	2	1.7	
PLPm24: mix of PLP 47 and PLP 48 (chain 1 QSIAFPSKTSASIGSL; chain 2 FPSKTSASIGSLCADA)	7	5.9	
PLPm25: mix of PLP 49 and PLP 50 (chain 1 TSASIGSLCADARMYG; chain 2 IGSLCADARMYGVLPW)	3	2.5	
PLPm32: mix of PLP 63 and PLP 64 (chain 1 ATLVSLLTFMIAATYN; chain 2 SLLTFMIAATYNFAVL)	12	10.1	
